Measurements from patent publication US11357778B2, “Antagonist of the fibroblast growth factor receptor 3 (FGFR3) for use in the treatment or the prevention of skeletal disorders linked with abnormal activation of FGFR3” (INSTITUT NATIONAL DE LA SANTE ET DE LE RECHERCHE MEDICALE …, priority 2011, dated 2022).

Assays:
Fgfr3^Y367C/+ mice = assay: Dwarfism mouse model, X-rays analysis of skeleton and body growth; format: in vivo; conditions: 10 days
Method: The effectiveness of PD173074 and BGJ-398 in attenuating the dwarfism phenotype of Fgfr3^Y367C/+ mice was assessed in viva. The mice were seven days of age at treatment initiation and received daily subcutaneous administration of 4.00 mg/kg PD173074 or of 1.66 mg/kg BGJ-398 for 10 days.
The effectiveness of PD173074 in attenuating the dwarfism phenotype of Fgfr3^Y367C/+ mice was assessed in vivo. The mice were seven days of age at treatment initiation and received daily subcutaneous administrations of 4.00 mg/kg of PD173074 for 10 days.
Seven days old mice received daily subcutaneous administrations of 1.66 mg/kg of BGJ-398 for 10 days.

Fgfr3^Y367C/+ femurs = assay: Ex vivo culture of E16.5 embryonic femur explants, bone length; format: cell-based, mouse; conditions: for gain in femur length: Fgfr3^Y367C/+ femurs
Method: Six sets of ex vivo experiments were performed. Femur embryos at day E16.5 from WT (n=6) and Fgfr3^Y367C/+ (n=6) mice were used and incubated for 5 days in DMEM medium with antibiotics and 0.2% BSA (Sigma) supplemented with A31 or PD173074 (as control) at a concentration of 2 mM. Right femur was cultured in supplemented medium and compared with the left one cultured in control medium. Rib cage from E16.5 WT and Fgfr3^Y367C/+ mice embryos were isolated and stripped of all soft tissues. Primary chondrocytes were obtained from rib cages. The ribs were incubated in a pronase solution (Roche; 2 mg/ml) followed by a digestion in Collagenase A (Roche; 3 mg/ml) at 37° C. Isolated chondrocytes were plated out at a density of 2.105 cells in 6-well plates containing DMEM supplemented with 10% FCS and antibiotics, and were allowed to reach subconfluency. Cultures were supplemented with A31 or PD173074 (as control) at a concentration of 2 mM. Cells were treated with A31 (2 mM) PD173074 (as control) in serum-free DMEM supplemented with 0.2% BSA and harvested after 24 h. To establish the effect of the inhibitors, the right femur was cultured in supplemented medium and compared with the left one cultured in control medium The bone length was measured at the beginning (before treatment) and at the end of time course. Each experiment was repeated at least three times. The genotype of WT, Fgfr3^Y367C/+ and Fgfr3^−/− mice were determined by PCR of tail DNA as previously described (Pannier et al., Biochim Biophys Acta, 1792: 140-147, 2009). All experimental procedures and protocols were approved by the Animal Care and Use Committee.
Fgfr3^Y367C/+ mice display reduced length of long bones, broad femurs, a narrow trunk, short ribs and a slightly dome-shaped skull, closely resembling achondroplasia (FIGS. 3A and B). The inventors analyzed the effects of A31 on endochondral ossification in Fgfr3^Y367C/+ mice by using an ex vivo culture system for embryonic day 16.5 (E16.5) limb explants. […] After 5 days of culture, the increase in length of the treated mutant femurs was 2.6 times more than for that of WT.
Thus, embryonic femur explants were co-incubated with 150 nM of PD173074 for 5 days.
Embryonic femur explants were co-incubated 100 nM (10^−7M) or 1 μM (10^−6M) of BGJ-398 for 6 days.

[1] = system: Fgfr3^Y367C/+ growth plate; assay: Histology of cultured femur growth plate (HES staining, type X collagen in situ hybridization); format: cell-based, mouse
Method: Limb explants were fixed after culture in 4% paraformaldehyde at 4° C., and placed in a staining solution for 45-60 minutes (0.05% Alizarin Red, 0.015% Alcian Blue, 5% acetic acid in 70% ethanol) or embedded in paraffin. Serial […] were stained with Hematoxylin-Eosin using standard protocols for histological analysis or were subjected to in situ hybridization or immunohistochemical staining. In situ hybridization using [S35]-UTP labeled antisense ribopropes for collagen X was carried out as previously described (Delezoide et al., Hum Mol Genet, 6, 1899-1906, 1997). Sections were counterstained with Hematoxylin. For immunohistochemistry, sections were stained with antibodies specific to FGFR3 (1:250 dilution; Sigma), anti PCNA (1:1000 dilution; Abcam), anti-KI67 (1:300; Abcam), anti-cyclin D1 (1:80 dilution; Santa Cruz) and anti-p57 (1:100 dilution; Santa Cruz) using the Dako Envision kit. Images were captured with an Olympus PD70-IX2-UCB microscope. […] The inventors evaluated the impact of A31 on the growth plate (FIG. 4A). […] Histological examinations using HES staining (FIG. 10A) and type X collagen labeling (FIG. 10B) were also carried out.

[2] = system: FGFR3Y373C, FGFR3K650E, FGFR3K650M, FGFR3G380R; assay: Constitutive FGFR3 phosphorylation in HEK-293 cells transiently expressing activated FGFR3; format: cell-based, human; conditions: 10 μM, data not shown

Row | SMILES | body size (Fgfr3^Y367C/+ mice; PD173074 4.00 mg/kg daily subcutaneous) | dwarfism phenotype (X-rays, clinical features) (Fgfr3^Y367C/+ mice; PD173074 4.00 mg/kg daily subcutaneous, from 7 days of age) | gain in femur length (Fgfr3^Y367C/+ femurs; PD173074 150 nM, 5 days) [%] | chondrocyte morphology (HES staining) ([1]; BGJ-398 10^−6M) | size of the hypertrophic zone of the femur explants ([1]; BGJ-398, Fgfr3^Y367C/+ femur explants) | type X collagen expression (in situ hybridization) ([1]; BGJ-398, Fgfr3^Y367C/+ growth plate) | dwarfism phenotype (X-rays) (Fgfr3^Y367C/+ mice; BGJ-398 1.66 mg/kg daily subcutaneous, from 7 days of age) | constitutive FGFR3 receptor phosphorylation [2] | femur size over concentration (in words) (Fgfr3^Y367C/+ femurs; BGJ-398 100 nM to 1 μM, 6 days) | gain in femur length (Fgfr3^Y367C/+ femurs; BGJ-398 100 nM, 6 days) [%]
1 | CCN(CC)CCCCNc1ncc2cc(-c3cc(OC)cc(OC)c3)c(NC(=O)NC(C)(C)C)nc2n1 [PD173074] | overall increase in body size | Amelioration in key relevant achondroplasia clinical features | 77 |  |  |  |  |  |  | 
2 | CCN1CCN(c2ccc(Nc3cc(N(C)C(=O)Nc4c(Cl)c(OC)cc(OC)c4Cl)ncn3)cc2)CC1 [BGJ-398, reference compound] |  |  |  | larger and more spherical | increases | enhanced type X collagen expression | Dramatic phenotypic changes | abolished receptor phosphorylation | concentration-dependent increase | 71.86
